In publication PMC6764291 (Frontiers in Oncology, 2019):
“Also recorded” adds a separate entry of the source. Read-outs that look alike come from different tables or passages of the source.

Columns and labels:
[1] = test system: cleaved caspase-3; assay: Western Blot cleaved caspase-3 expression, HCT116; type: cell-based
Method: (§1) Cells were irradiated using ^137Cs gamma-ray photons at a dose-rate of ~1 Gy/min (Best Theratronics Gammacell® 40Exactor, Springfield, USA).
(§2) Whole-cell lysates were prepared according to standard protocols. Protein concentrations were measured using a DeNovix DS-11 spectrophotometer (DeNovix Inc., Wilmington, DE, USA). Samples were separated on 4–12% Bis-Tris SDS gels and transferred to a nitrocellulose membrane (ThermoFisher Scientific, Uppsala, Sweden) by wet-transfer blotting. The membrane was blocked for 1 h in PBS with 5% BSA before incubation with primary antibodies targeting p53, caspase-3, NaK-ATPase and GLB1 (DO-1 (ab1101), ab13847, ab76020 and ab128993, AbCam, Cambridge, UK) and β-actin (A5441, Sigma Aldrich Sweden, Stockholm, Sweden) at 4°C overnight. After washing with PBS with 1% Tween-20, the membrane was incubated with respective and species-specific Horse Radish Peroxidase-labeled secondary antibody (ThermoFisher Scientific, Waltham, MA, USA) and stained with electro-chemiluminescent solution (Immobilon, Millipore, Bedford, USA).

[2] = test system: p53; assay: Western Blot p53 expression, HCT116; type: cell-based; conditions: n ≥ 3
Method: as §1, §2

[3] = test system: cleaved caspase-3; assay: Flow cytometry cleaved caspase-3, UM-SCC-74B; type: cell-based, human
Method: as §1
(§3) Cells were collected and fixed in 70% ethanol at 6, 12, 24, 48, 72, and 96 h post-irradiation and stored at −20°C. For cell cycle analyses, 6, 12, 24, and 48 h samples were rehydrated and washed twice with PBS and stained with DAPI (Sigma Aldrich Sweden, Stockholm, Sweden) using 1 μg/ml for 30 min. 24, 48, 72, and 96 h samples were stained with caspase-3 and Noxa (ab13847 (1:500) and ab13654 (1:1,000), AbCam, Cambridge, UK) overnight at 4°C, followed by incubation with fluorescent labeled secondary antibodies for 90 min (ab 1:400) at room temperature. Analyses were performed using a BD LSR Fortessa flow cytometer (Becton Dickinson Biosciences, San Jose, USA). Data analyses for cleaved caspase-3 and Noxa were performed with BD FACSDiVa (Becton Dickinson Biosciences, San Jose, USA), while cell cycle analyses of exclusively viable cells were performed using FlowJo (Becton, Dickinson Biosciences, San Jose, USA). Coefficient of variation (CV) values, were below seven for all samples.

[4] = test system: GLB-1; assay: Western Blot GLB-1 expression, HCT116; type: cell-based; conditions: 2 Gy + 20 μM PM2, n ≥ 3
Method: as §1, §2

[5] = test system: UM-SCC-74A; assay: XTT cell viability, UM-SCC-74A; type: cell-based, human
Method: (§4) The human squamous cell carcinoma cell lines UM-SCC-74A and UM-SCC-74B were kindly provided by Professor TE Carey (University of Michigan, USA) and cultured in Dulbecco's Modified Eagle Medium (DMEM) with 10% fetal bovine serum, 1% L-glutamine, 1% antibiotics (100 IU penicillin and 100 μg/ml streptomycin) as well as 1% non-essential amino acids (all from Biochrom Kg, Berlin, Germany). UT-SCC-45 (kindly provided by Dr. R. Grenman, Turku University Central Hospital, Finland) was cultured in DMEM with the abovementioned additives. HCT116 and A431 were purchased from American Type Culture Collection (Manassas, VA, USA). HCT116 was cultured in McCoy's modified Eagle medium with 10% fetal bovine serum, 1% L-glutamine and 1% antibiotics (100 IU penicillin and 100 μg/ml streptomycin) and A431 was cultured in Ham's F10 with the same additives. H314 was purchased from the European Collection of Authenticated Cell Cultures (Salisbury, UK) in DMEM/Ham's F12 (1:1) with the abovementioned additives. Cells were incubated at 37°C with 5% CO2, and cultivated for no longer than 2 months at a time.
as §1
(§5) Five-hundred to ten thousands cells were seeded in flat-bottomed 96-well plates and incubated for 48 h prior to irradiation with 2Gy. […] Cells were incubated at 37° for 4–5 days until 80–90% confluence had been obtained. A mix of XTT Activation Reagent and XTT Reagent was added according to the American Type Culture Collection 30–1011 K protocol (Manassas, VA, USA). Plates were incubated for up to 6 h at 37° and absorbance was measured by using a BioMark Microplate Reader (Bio-Rad Laboratories AB, Solna, Sweden).
(§6) GraphPad Prism version 6.07 (GraphPad Software, San Diego, USA) was used for data processing and analysis. p-values were determined using unpaired student's t-test for comparison between two groups or one-way ANOVA followed by Tukey's multiple comparisons test, with p < 0.05 (^*), p < 0.01 (^**), p < 0.001 (^***), and p < 0.0001 (^****). For XTT assays cell viability was normalized for irradiated and unirradiated samples separately. […] CDI ≤ 0.7 equaled significant synergistic effect, CDI ≤ 1 equaled additive effect and CDI > 1 equaled antagonistic effect ([29]).

[6] = test system: H314; assay: XTT cell viability, H314; type: cell-based; conditions: n ≥ 4
Method: (§7) The human squamous cell carcinoma cell lines UM-SCC-74A and UM-SCC-74B were kindly provided by Professor TE Carey (University of Michigan, USA) and cultured in Dulbecco's Modified Eagle Medium (DMEM) with 10% fetal bovine serum, 1% L-glutamine, 1% antibiotics (100 IU penicillin and 100 μg/ml streptomycin) as well as 1% non-essential amino acids (all from Biochrom Kg, Berlin, Germany). UT-SCC-45 (kindly provided by Dr. R. Grenman, Turku University Central Hospital, Finland) was cultured in DMEM with the abovementioned additives. HCT116 and A431 were purchased from American Type Culture Collection (Manassas, VA, USA). […]
(§8) Five-hundred to ten thousands cells were seeded in flat-bottomed 96-well plates and incubated for 48 h prior to irradiation with 2Gy. […] Plates were incubated for up to 6 h at 37° and absorbance was measured by using a BioMark Microplate Reader (Bio-Rad Laboratories AB, Solna, Sweden).
(§9) GraphPad Prism version 6.07 (GraphPad Software, San Diego, USA) was used for data processing and analysis. p-values were determined using unpaired student's t-test for comparison between two groups or one-way ANOVA followed by Tukey's multiple comparisons test, with p < 0.05 (^*), p < 0.01 (^**), p < 0.001 (^***), and p < 0.0001 (^****). […]

[7] = test system: UM-SCC-74B; assay: XTT cell viability, UM-SCC-74B; type: cell-based, human
Method: as §4, §1, §5, §6

[8] = test system: A431; assay: XTT cell viability, A431; type: cell-based; conditions: n ≥ 4
Method: as §7, §8, §9

[9] = test system: wt p53 tumors; conditions: mice, PM2 combined with radiotherapy; cited from earlier work
[10] = test system: Noxa; assay: Flow cytometry Noxa expression, UM-SCC-74B; type: cell-based, human; conditions: 20 μM PM2, 72 h
Method: as §1, §3

[11] = test system: HCT116; assay: XTT cell viability, HCT116; type: cell-based
Method: as §4, §1, §5, §6

[12] = 20 μM PM2, 0 Gy, compared to untreated controls
[13] = 0–20 μM PM2, 0 Gy, wild-type p53, HPV negative, n = 6

Question: With `CC(=O)N[C@H](C(=O)N[C@@H](CO)C(=O)N[C@@H](Cc1ccccc1)C(=O)N[C@]1(C)CCCCCCC=CCCC[C@@](C)(C(N)=O)NC(=O)[C@H](CC(C)C)NC(=O)[C@H](CC(C)C)NC(=O)[C@H](C)NC(=O)[C@H](Cc2c[nH]c3ccccc23)NC(=O)[C@H](Cc2ccc(O)cc2)NC(=O)[C@H](CCC(=O)O)NC1=O)[C@@H](C)O` [PM2] as the compound, how does the “increase in cleaved caspase-3 levels” value ([1]; 20 μM PM2, 96 h (representative blots), normalized to controls, n ≥ 3) read?
Answer: The value was “three-fold”.

Question: What about the “cleaved caspase-3 expression” value ([1]; 20 μM PM2-treated samples, n ≥ 3) of the same compound?
Answer: Its value is “increase in expression”.

Question: And the “cleaved caspase-3 expression, combination” value ([1]; 2 Gy + 20 μM PM2, n ≥ 3)?
Answer: The value was “predominant”.

Question: And the p53 expression ([2]; 20 μM PM2, 24 h)?
Answer: The p53 expression was “increased expression of p53”.

Question: And the “p53 expression, combination versus PM2 alone” value ([2]; 2 Gy + 20 μM PM2, 24 h)?
Answer: The value was “significant increase; also recorded: further increased wt p53 levels”.

Question: And the “cleaved caspase-3 expression” value ([3]; 20 μM PM2, 72 h)?
Answer: The value was “distinct increases”.

Question: And the “cleaved caspase-3 increase compared to controls” value ([3]; 20 μM PM2-treated, peak at 72 h, n ≥ 3)?
Answer: The value was 40 fold.

Question: And the “cleaved caspase-3, combination versus PM2 alone” value ([3]; 2 Gy + 20 μM PM2, p ≤ 0.05)?
Answer: The value was “significantly higher expression levels”.

Question: And the “GLB-1 expression versus irradiated and control, combination” value [4]?
Answer: Its value is “less pronounced and failed to reach significance”.

Question: And the PM2 effect ([5]; 0–20 μM PM2, 0 Gy, wild-type p53, HPV negative, n ≥ 4)?
Answer: The PM2 effect was “decreased significantly the viability and Yes”.

Question: And the average viability reduction [5, 12]?
Answer: Its average viability reduction is 73%.

Question: What about the “lowest PM2 dose with significant decrease of viability” value ([5]; PM2 alone) of the same compound?
Answer: Its value is ~ 10 μM.

Question: And the IC50 ([5]; PM2 alone (0 Gy), 4–5 days)?
Answer: Its IC50 is 16 µM.

Question: And the “Significant effect of combination” value ([5]; PM2 with 2 Gy EBRT, n ≥ 4)?
Answer: The value was “Yes”.

Question: And the PM2 effect ([6]; 0–20 μM PM2, 0 Gy, two p53 mutations, HPV negative)?
Answer: The PM2 effect was “did not affect and No”.

Question: What about the “Significant effect of combination” value ([6]; PM2 with 2 Gy EBRT) of the same compound?
Answer: The value was “No”.

Question: What about the PM2 effect [7, 13] of the same compound?
Answer: The PM2 effect was “decreased significantly the viability and Yes”.

Question: What about the average viability reduction [7, 12] of the same compound?
Answer: The average viability reduction was 90%.

Question: And the IC50 ([7]; PM2 alone (0 Gy), 4–5 days, n = 6)?
Answer: The IC50 was 17 µM.

Question: And the “lowest PM2 dose with significant decrease of viability” value ([7]; PM2 alone, compared with ~10 μM for HCT116 and UM-SCC-74A)?
Answer: Its value is “slightly higher dose”.

Question: And the “lowest PM2 dose with significant drop in viability of combination versus PM2-monotherapy” value ([7]; PM2 with 2 Gy EBRT)?
Answer: Its value is 10 µM.

Question: What about the “Significant effect of combination” value ([7]; PM2 with 2 Gy EBRT, n = 6) of the same compound?
Answer: Its value is “most pronounced sensitivity and Yes”.

Question: And the PM2 effect ([8]; 0–20 μM PM2, 0 Gy, single base p53 mutation, HPV negative)?
Answer: The PM2 effect was “did not affect and unaffected and No”.

Question: And the “Significant effect of combination” value ([8]; PM2 with 2 Gy EBRT)?
Answer: The value was “significantly decreased the viability and significant decrease in viability and Yes”.

Question: And the “prolongation of median survival” value [9]?
Answer: The value was 50%.

Question: And the “Noxa expression” value [10]?
Answer: Its value is “distinct increases”.

Question: And the PM2 effect [11, 13]?
Answer: Its PM2 effect is “decreased significantly the viability and Yes”.

Question: And the average viability reduction [11, 12]?
Answer: Its average viability reduction is 75%.

Question: And the IC50 ([11]; PM2 added 3 h after 2 Gy EBRT, normalized to 2 Gy, 0 μM PM2, n = 6, read-out: IC50 of the combination treatment)?
Answer: Its IC50 is 12 µM.

Question: What about the “lowest PM2 dose with significant decrease of viability” value ([11]; PM2 alone) of the same compound?
Answer: Its value is ~ 10 μM.

Question: And the IC50 ([11]; PM2 alone (0 Gy), 4–5 days, n = 6, read-out: IC50 (cell viability))?
Answer: Its IC50 is 14 µM.

Question: And the “Significant effect of combination” value ([11]; PM2 with 2 Gy EBRT, n = 6)?
Answer: The value was “Yes”.
